Mutagenic call data for 9 compounds are collected here from PubChem BioAssay AID1259407 (Chemical Carcinogenesis Research Information System (CCRIS), 2018).

Calls of active or inactive are those of the source. How the calls were made is not given here.

The series relates to CCRIS mutagenicity, Ames/micronucleus/aberration tests. The experiment in a line: CCRIS mutagenicity studies.
[1] abbreviates: Test System: AMES SALMONELLA TYPHIMURIUM, Strain/Indicator: TA98, Metabolic Activation: RAT, LIVER, S-9, AROCLOR 1254, Method: STANDARD PLATE.
[2] abbreviates: Test System: AMES SALMONELLA TYPHIMURIUM, Strain/Indicator: TA100, Metabolic Activation: RAT, LIVER, S-9, AROCLOR 1254, Method: STANDARD PLATE.
The mark [3] stands for this setting: Test System: AMES SALMONELLA TYPHIMURIUM, Strain/Indicator: TA100, Metabolic Activation: NONE, Method: PREINCUBATION
The mark [4] stands for this setting: Test System: AMES SALMONELLA TYPHIMURIUM, Strain/Indicator: TA100, Metabolic Activation: NONE, Method: STANDARD PLATE.
Where [5] appears, read: Test System: AMES SALMONELLA TYPHIMURIUM, Strain/Indicator: TA102, Metabolic Activation: NONE, Method: STANDARD PLATE.
[6] abbreviates: Test System: AMES SALMONELLA TYPHIMURIUM, Strain/Indicator: TA102, Metabolic Activation: RAT, LIVER, S-9, AROCLOR 1254, Method: STANDARD PLATE.

Consider `O=C1C[C@H](O)[C@@H]2c3c(ccc(O)c31)-c1ccc(O)c3c1[C@@]2(O)CCC3=O`, for which the mutagenic call reads like this: (Test System: AMES SALMONELLA TYPHIMURIUM, Strain/Indicator: TA98, Metabolic Activation: RAT LIVER S-9, AROCLOR 1254, Method: STANDARD PLATE) “active; positive”; under setting [1], “active; positive”; (Test System: AMES SALMONELLA TYPHIMURIUM, Strain/Indicator: TA100, Metabolic Activation: RAT LIVER S-9, AROCLOR 1254, Method: STANDARD PLATE) “inactive; negative”; under setting [2], “active; positive”; (Test System: AMES SALMONELLA TYPHIMURIUM, Strain/Indicator: TA1537, Metabolic Activation: NONE, Method: STANDARD PLATE) “active; positive”; (Test System: AMES SALMONELLA TYPHIMURIUM, Strain/Indicator: TA1537, Metabolic Activation: RAT, LIVER, S-9, AROCLOR 1254, Method: STANDARD PLATE) “active; positive”. The mutagenic call is, setting by setting: (Test System: Ames Salmonella typhimurium, Strain/Indicator: TA97, Metabolic Activation: None, Method: Standard plate) “inactive; negative. nitrosation increased mutagenicity”; (Test System: Ames Salmonella typhimurium, Strain/Indicator: TA97, Metabolic Activation: Rat, Liver, S-9, Aroclor 1254 (10%), Method: Standard plate) “inactive; negative. nitrosation increased mutagenicity”; (Test System: Ames Salmonella typhimurium, Strain/Indicator: TA102, Metabolic Activation: None, Method: Standard plate) “active; positive. nitrosation yielded mutagenic product”; (Test System: Ames Salmonella typhimurium, Strain/Indicator: TA102, Metabolic Activation: Rat, Liver, S-9, Aroclor 1254 (10%), Method: Standard plate) “active; positive. nitrosation yielded mutagenic product”; (Test System: Ames Salmonella typhimurium, Strain/Indicator: TA104, Metabolic Activation: None, Method: Standard plate) “inactive; negative. nitrosation increased mutagenicity”; (Test System: Ames Salmonella typhimurium, Strain/Indicator: TA104, Metabolic Activation: Rat, Liver, S-9, Aroclor 1254 (10%), Method: Standard plate) “inactive; negative. nitrosation increased mutagenicity”. The mutagenic call (Test System: Chinese hamster fibroblasts, Strain/Indicator: V79 (Hprt)/6-thioguanine, Metabolic Activation: None, Method: Standard plate) is “inactive; negative (positive in presence of nitrosating medium_” and the mutagenic call (Test System: Rat hepatoma cells, Strain/Indicator: H4IIE (Hprt/6-thioguanine), Metabolic Activation: None, Method: Standard plate) is “inactive; negative (positive in presence of nitrosating medium)”.

Consider `Nc1ccc2cccnc2c1`, for which the mutagenic call reads like this: (Test System: AMES SALMONELLA TYPHIMURIUM, Strain/Indicator: TA98, Metabolic Activation: NONE, Method: PREINCUBATION) “inactive; negative”; (Test System: AMES SALMONELLA TYPHIMURIUM, Strain/Indicator: TA98, Metabolic Activation: RAT, LIVER, S-9, KANECHLOR 500 OR PHENOBARBITAL AND BETA-NAPHTHOFLAVONE, Method: PREINCUBATION) “active; positive”; under setting [3], “active; positive”; (Test System: AMES SALMONELLA TYPHIMURIUM, Strain/Indicator: TA100, Metabolic Activation: RAT, LIVER, S-9, KANECHLOR 500 OR PHENOBARBITAL AND BETA-NAPHTHOFLAVONE, Method: PREINCUBATION) “active; positive”.

As for `CCCOc1cc(N=Nc2ccc(N(CC)CC)cc2)ccc1N=Nc1c(S(=O)(=O)O)cc2ccc(N)cc2c1O`, the mutagenic call reads like this: under setting [1], “active; positive”; under setting [4], “inactive; negative”; under setting [2], “inactive; negative”; (Test System: AMES SALMONELLA TYPHIMURIUM, Strain/Indicator: TA1538, Metabolic Activation: NONE, Method: STANDARD PLATE) “inactive; negative”; (Test System: AMES SALMONELLA TYPHIMURIUM, Strain/Indicator: TA1538, Metabolic Activation: RAT, LIVER, S-9, AROCLOR 1254, Method: STANDARD PLATE) “active; positive”.

As to `Nc1ccc2ccc3ccccc3c2c1`, the mutagenic call was “active; positive” (Test System: AMES SALMONELLA TYPHIMURIUM, Strain/Indicator: TA98, Metabolic Activation: RAT, LIVER, S-9, AROCLOR 1254 (2 OR 4%), Method: STANDARD PLATE); “active; positive” (Test System: AMES SALMONELLA TYPHIMURIUM, Strain/Indicator: TA100, Metabolic Activation: RAT, LIVER, S-9, AROCLOR 1254 (2%), Method: STANDARD PLATE); “active; positive” (Test System: AMES SALMONELLA TYPHIMURIUM, Strain/Indicator: TA1535, Metabolic Activation: RAT, LIVER, S-9, AROCLOR 1254 (2%), Method: STANDARD PLATE); “active; positive” (Test System: AMES SALMONELLA TYPHIMURIUM, Strain/Indicator: TA1537, Metabolic Activation: RAT, LIVER, S-9, AROCLOR 1254 (2%), Method: STANDARD PLATE).

Regarding `CCCCCCCCCC(=O)N=c1sn(C(=O)CCCCCCCCC)c2ccc([N+](=O)[O-])cc12`, the mutagenic call (Test System: AMES SALMONELLA TYPHIMURIUM, Strain/Indicator: TA100, Metabolic Activation: S-9, Method: STANDARD PLATE) was “active; positive”.

In the case of `CN(C)c1ccc(N=Nc2cccc(CCl)c2)cc1`, the mutagenic call was “active; positive” (Test System: AMES SALMONELLA TYPHIMURIUM, Strain/Indicator: TA98, Metabolic Activation: RAT, LIVER, S-9, POLYCHLORINATED BIPHENYLS, Method: PREINCUBATION) and “active; positive” (Test System: AMES SALMONELLA TYPHIMURIUM, Strain/Indicator: TA100, Metabolic Activation: RAT, LIVER, S-9, POLYCHLORINATED BIPHENYLS, Method: PREINCUBATION).

Consider `CC(C)[C@@](O)(C(=O)OCC1=CCN2CC[C@@H](O)[C@@H]12)[C@H](C)O`, for which the mutagenic call by setting is: (Test System: AMES SALMONELLA TYPHIMURIUM, Strain/Indicator: TA100, Metabolic Activation: HAMSTER, LIVER, S-9, PCB, Method: PREINCUBATION) “inactive; negative”; (Test System: AMES SALMONELLA TYPHIMURIUM, Strain/Indicator: TA100, Metabolic Activation: RAT, LIVER, S-9, PCB, Method: PREINCUBATION) “inactive; negative”.

Regarding `CCC(CCC(C)=O)COC(=O)CCCCC(=O)O` (stereo unspecified), the mutagenic call runs as follows: (Test System: AMES SALMONELLA TYPHIMURIUM, Strain/Indicator: TA97, Metabolic Activation: NONE, Method: STANDARD PLATE) “inactive; negative”; (Test System: AMES SALMONELLA TYPHIMURIUM, Strain/Indicator: TA97, Metabolic Activation: RAT, LIVER, S-9, AROCLOR 1254, Method: STANDARD PLATE) “inactive; negative”; (Test System: AMES SALMONELLA TYPHIMURIUM, Strain/Indicator: TA97, Metabolic Activation: RAT, LIVER, S-9, DI(2-ETHYLHEXYL)PHTHALATE, Method: STANDARD PLATE) “inactive; negative”; (Test System: AMES SALMONELLA TYPHIMURIUM, Strain/Indicator: TA98, Metabolic Activation: NONE, Method: STANDARD PLATE) “inactive; negative”; under setting [1], “inactive; negative”; (Test System: AMES SALMONELLA TYPHIMURIUM, Strain/Indicator: TA98, Metabolic Activation: RAT, LIVER, S-9, DI(2-ETHYLHEXYL)PHTHALATE, Method: STANDARD PLATE) “inactive; negative”. In addition, the mutagenic call under setting [4] was “inactive; negative”; the mutagenic call under setting [2] was “inactive; negative”; the mutagenic call (Test System: AMES SALMONELLA TYPHIMURIUM, Strain/Indicator: TA100, Metabolic Activation: RAT, LIVER, S-9, DI(2-ETHYLHEXYL)PHTHALATE, Method: STANDARD PLATE) was “inactive; negative”; the mutagenic call under setting [5] was “inactive; negative”; the mutagenic call under setting [6] is “inactive; negative”; the mutagenic call (Test System: AMES SALMONELLA TYPHIMURIUM, Strain/Indicator: TA102, Metabolic Activation: RAT, LIVER, S-9, DI(2-ETHYLHEXYL)PHTHALATE, Method: STANDARD PLATE) was “inactive; negative”.

For `O=C1C=C2C(=CCOC2O)O1` (stereo unspecified), the mutagenic call (End Point: In vitro micronucleus, Test System: Human hepatoma HepG2 cells, Metabolic Activation: None) was “active; positive. depletion of glutathione increased patulin-induced micronuclei frequen”; the mutagenic call (Test System: AMES SALMONELLA TYPHIMURIUM, Strain/Indicator: TA98, Metabolic Activation: RAT, LIVER, MICROSOMES, PHENOBARBITAL, Method: STANDARD PLATE) was “inactive; negative”; the mutagenic call under setting [3] was “inactive; negative”; the mutagenic call (Test System: AMES SALMONELLA TYPHIMURIUM, Strain/Indicator: TA100, Metabolic Activation: RAT, LIVER, MICROSOMES, PHENOBARBITAL, Method: STANDARD PLATE) was “inactive; negative”; the mutagenic call (Test System: AMES SALMONELLA TYPHIMURIUM, Strain/Indicator: TA100, Metabolic Activation: RAT, LIVER, S-9, PHENOBARBITAL, Method: PREINCUBATION) is “inactive; negative”; the mutagenic call under setting [5] is “inactive; negative”. The mutagenic call under setting [6] is “inactive; negative”.
